Values quoted from earlier work, collected in patent publication US12600787B2, “Methods for the treatment of thyroid eye disease” (Horizon Therapeutics Ireland DAC, priority 2019, dated 2026).
Read-outs that look alike come from different tables or passages of the source.

Experiments:
IGF-1 R = IGF-1 R (Homo sapiens, UniProt P08069); settings: cited from earlier work
ALK = ALK (Homo sapiens, UniProt Q9UM73); settings: cited from earlier work
neuroblastoma = settings: by overcoming crizotinib resistance and inducing apoptosis; cited from earlier work
[1] = cited from earlier work
tumors = settings: in vivo; cited from earlier work
IGF-IR (purified enzyme) = IGF-IR (purified enzyme) (Homo sapiens, UniProt P08069); settings: cited from earlier work
[2] = tested on: intracellular IGF-IR phosphorylation; settings: cited from earlier work
[3] = molecular target: c-erbB2/HER2/neu receptor (Homo sapiens, UniProt P04626); settings: cited from earlier work
[4] = tested on: susceptible tumor cell populations; settings: cited from earlier work
[5] = cited from earlier work; remark: listed apart in the source
[6] = tested on: IGF-1 R-overexpressing tumor cells; settings: cited from earlier work
[7] = tested on: moderate-to-severe active TED; settings: cited from earlier work
TED (GO) = settings: cited from earlier work

Sequence of IGF-1 R (P08069 31-1367): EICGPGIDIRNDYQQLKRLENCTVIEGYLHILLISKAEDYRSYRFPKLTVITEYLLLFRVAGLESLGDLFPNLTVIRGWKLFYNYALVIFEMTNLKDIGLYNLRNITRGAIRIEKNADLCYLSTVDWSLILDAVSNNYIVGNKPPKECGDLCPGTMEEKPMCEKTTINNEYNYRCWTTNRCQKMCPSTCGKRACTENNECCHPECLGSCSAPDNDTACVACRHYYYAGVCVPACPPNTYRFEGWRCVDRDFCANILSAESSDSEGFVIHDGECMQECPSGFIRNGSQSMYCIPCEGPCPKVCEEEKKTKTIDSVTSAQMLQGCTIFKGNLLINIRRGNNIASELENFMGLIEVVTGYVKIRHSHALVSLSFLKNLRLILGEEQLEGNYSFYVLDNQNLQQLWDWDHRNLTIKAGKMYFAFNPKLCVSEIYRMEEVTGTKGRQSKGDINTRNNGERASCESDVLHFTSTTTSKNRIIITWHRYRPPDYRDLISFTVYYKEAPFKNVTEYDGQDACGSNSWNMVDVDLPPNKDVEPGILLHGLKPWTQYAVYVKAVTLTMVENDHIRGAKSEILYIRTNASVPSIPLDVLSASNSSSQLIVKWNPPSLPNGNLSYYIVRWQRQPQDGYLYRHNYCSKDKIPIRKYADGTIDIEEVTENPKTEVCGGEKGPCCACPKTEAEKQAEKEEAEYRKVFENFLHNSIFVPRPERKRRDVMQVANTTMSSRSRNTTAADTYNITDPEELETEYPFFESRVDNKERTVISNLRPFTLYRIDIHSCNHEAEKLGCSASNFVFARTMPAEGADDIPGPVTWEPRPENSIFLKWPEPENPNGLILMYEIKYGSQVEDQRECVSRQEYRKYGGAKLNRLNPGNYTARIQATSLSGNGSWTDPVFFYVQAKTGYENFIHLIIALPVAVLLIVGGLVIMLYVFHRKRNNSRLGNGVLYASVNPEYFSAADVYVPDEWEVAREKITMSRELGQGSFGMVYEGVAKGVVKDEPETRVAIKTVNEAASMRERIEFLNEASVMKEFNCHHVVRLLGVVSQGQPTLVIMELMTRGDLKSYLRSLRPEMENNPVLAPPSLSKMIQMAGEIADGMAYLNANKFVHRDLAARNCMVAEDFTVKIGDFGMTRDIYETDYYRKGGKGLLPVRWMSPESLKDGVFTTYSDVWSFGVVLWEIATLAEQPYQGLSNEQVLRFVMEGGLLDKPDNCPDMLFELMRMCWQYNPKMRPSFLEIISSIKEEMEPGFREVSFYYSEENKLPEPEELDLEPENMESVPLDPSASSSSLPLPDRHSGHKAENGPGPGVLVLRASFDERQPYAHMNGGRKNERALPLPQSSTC
Sequence of c-erbB2/HER2/neu receptor (P04626 23-1255): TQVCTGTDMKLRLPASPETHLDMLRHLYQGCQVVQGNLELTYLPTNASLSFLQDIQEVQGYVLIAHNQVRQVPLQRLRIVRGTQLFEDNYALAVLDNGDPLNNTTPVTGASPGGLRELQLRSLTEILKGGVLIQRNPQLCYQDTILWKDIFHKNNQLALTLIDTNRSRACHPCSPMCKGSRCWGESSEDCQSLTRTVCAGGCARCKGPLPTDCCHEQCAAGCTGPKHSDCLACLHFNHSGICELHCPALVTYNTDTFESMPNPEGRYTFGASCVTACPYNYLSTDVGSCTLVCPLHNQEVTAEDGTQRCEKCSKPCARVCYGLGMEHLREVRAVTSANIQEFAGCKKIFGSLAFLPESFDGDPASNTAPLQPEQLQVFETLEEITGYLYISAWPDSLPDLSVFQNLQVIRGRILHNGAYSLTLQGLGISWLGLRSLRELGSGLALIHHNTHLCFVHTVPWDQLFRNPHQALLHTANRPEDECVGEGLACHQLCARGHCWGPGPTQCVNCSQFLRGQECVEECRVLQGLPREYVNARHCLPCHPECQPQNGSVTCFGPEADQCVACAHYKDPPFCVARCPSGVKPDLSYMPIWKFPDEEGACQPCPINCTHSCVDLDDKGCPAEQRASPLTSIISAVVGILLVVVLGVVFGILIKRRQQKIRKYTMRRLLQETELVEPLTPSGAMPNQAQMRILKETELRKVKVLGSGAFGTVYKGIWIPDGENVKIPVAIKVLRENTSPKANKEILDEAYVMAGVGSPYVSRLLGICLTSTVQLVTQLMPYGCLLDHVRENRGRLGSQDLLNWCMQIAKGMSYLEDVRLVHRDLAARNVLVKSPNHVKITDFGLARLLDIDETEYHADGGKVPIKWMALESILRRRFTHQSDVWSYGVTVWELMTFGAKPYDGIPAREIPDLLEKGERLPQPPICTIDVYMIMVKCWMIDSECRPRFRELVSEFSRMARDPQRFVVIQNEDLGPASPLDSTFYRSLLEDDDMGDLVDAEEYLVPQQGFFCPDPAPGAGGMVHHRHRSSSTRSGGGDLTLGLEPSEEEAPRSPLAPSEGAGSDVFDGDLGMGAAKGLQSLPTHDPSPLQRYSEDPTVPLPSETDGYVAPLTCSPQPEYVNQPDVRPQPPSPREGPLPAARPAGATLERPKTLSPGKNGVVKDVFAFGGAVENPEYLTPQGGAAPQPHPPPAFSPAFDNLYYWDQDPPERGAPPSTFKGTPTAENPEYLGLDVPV
Sequence of ALK (Q9UM73 19-1620, species assumed): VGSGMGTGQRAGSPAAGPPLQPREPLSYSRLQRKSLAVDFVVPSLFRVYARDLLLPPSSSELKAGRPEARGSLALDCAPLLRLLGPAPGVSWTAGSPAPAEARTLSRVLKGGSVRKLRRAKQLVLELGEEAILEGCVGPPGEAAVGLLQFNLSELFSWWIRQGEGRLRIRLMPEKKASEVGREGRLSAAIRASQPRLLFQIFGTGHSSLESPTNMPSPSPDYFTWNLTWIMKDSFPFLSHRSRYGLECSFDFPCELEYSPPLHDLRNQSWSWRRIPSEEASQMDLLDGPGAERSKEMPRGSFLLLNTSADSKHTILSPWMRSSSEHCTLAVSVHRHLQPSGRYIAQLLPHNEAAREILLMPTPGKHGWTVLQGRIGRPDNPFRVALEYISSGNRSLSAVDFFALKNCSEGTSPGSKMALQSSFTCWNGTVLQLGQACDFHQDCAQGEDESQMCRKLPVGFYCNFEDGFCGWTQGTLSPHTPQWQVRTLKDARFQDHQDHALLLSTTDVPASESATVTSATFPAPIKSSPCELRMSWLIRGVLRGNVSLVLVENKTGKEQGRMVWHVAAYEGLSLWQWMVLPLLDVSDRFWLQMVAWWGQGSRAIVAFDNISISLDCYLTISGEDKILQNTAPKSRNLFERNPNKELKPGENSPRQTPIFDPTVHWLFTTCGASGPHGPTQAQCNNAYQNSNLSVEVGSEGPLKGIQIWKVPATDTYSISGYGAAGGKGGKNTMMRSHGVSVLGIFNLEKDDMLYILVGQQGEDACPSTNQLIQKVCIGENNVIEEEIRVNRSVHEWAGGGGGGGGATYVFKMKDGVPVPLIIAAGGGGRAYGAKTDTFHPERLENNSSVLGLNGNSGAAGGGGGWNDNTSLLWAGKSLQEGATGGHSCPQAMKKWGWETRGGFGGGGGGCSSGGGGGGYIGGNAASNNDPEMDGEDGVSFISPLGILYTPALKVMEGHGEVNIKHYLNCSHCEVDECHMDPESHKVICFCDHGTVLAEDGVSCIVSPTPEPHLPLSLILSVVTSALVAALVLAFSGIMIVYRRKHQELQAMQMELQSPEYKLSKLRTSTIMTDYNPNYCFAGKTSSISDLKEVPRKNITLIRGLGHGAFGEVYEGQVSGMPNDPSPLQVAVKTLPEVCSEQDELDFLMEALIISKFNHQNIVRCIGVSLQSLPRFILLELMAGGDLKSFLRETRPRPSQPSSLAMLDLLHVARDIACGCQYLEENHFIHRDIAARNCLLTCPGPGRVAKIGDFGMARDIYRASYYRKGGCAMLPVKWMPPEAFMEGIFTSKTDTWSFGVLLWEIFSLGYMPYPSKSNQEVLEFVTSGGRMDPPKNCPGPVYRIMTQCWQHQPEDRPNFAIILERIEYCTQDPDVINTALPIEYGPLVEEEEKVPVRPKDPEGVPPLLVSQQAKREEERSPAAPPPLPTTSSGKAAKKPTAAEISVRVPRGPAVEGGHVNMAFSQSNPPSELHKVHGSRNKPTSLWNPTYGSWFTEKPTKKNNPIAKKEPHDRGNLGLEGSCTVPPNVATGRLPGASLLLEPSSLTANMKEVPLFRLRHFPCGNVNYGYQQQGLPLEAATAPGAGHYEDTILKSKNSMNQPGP
Sequence of IGF-IR (purified enzyme) (P08069 31-1367): as the sequence (P08069 31-1367) above

## COc1cc(N2CCC(N)CC2)ccc1Nc1ncc(Cl)c(-c2c[nH]c3ccccc23)n1 [AZD3463]
IGF-1 R
  IGF-1R inhibition: potent ALK/IGF-1 R inhibitor
ALK
  ALK inhibition: potent ALK/IGF-1 R inhibitor
neuroblastoma
  neuroblastoma growth: inhibition of neuroblastoma growth

## COCCN1CCN(CCn2ccc(Nc3ncc4c(n3)[C@@H](C)Cc3nn(C)c(-c5ccccc5)c3-4)n2)CC1 [BI885578]
[1]
  in vivo half-life: short in vivo half-life
[1]; in vivo
  intestinal absorption: rapid intestinal absorption
  metabolic clearance: rapid metabolic clearance
tumors
  cell proliferation and apoptosis in tumors: inhibition of cell proliferation and induction of apoptosis in tumors

## Nc1ncnc2c1c(-c1ccc3[nH]c(Cc4ccccc4Cl)nc3c1)nn2[C@H]1CC[C@H](N2CCOCC2)CC1 [Example A-928605]
IGF-IR (purified enzyme)
  inhibition of IGF-IR: potent inhibitor
[2]
  inhibition of IGF-IR phosphorylation: potent inhibitor

## C[C@H](Cc1ccc(O)c(O)c1)[C@@H](C)Cc1ccc(O)c(O)c1 [INSM-18, nordihydroguaiaretic acid]
IGF-1 R
  IGF-1R inhibition: directly inhibits activation
[3]
  inhibition of activation of c-erbB2/HER2/neu receptor: directly inhibits activation
[4]
  proliferation of tumor cells: decreased proliferation

## C[C@]1(O)C[C@@H](c2nc(-c3ccc4ccc(-c5ccccc5)nc4c3)c3c(N)nccn32)C1 [Linsitinib]
[5]; oral
  T1/2: oral; 2-4 hrs

## CCOC(=O)N1CCC(Nc2cc(Cl)cc3c(S(=O)(=O)N4CCO[C@H](COc5ccccc5)C4)c(C(N)=O)[nH]c23)CC1 [PL-225B]
IGF-1 R
  IGF-1R inhibition: selectively inhibits
[6]
  tumor cell apoptosis: induction of tumor cell apoptosis
  tumor cell proliferation: inhibition of tumor cell proliferation
[5]; oral
  T1/2: Oral; 21d

## Cixutumumab: IGF-1R inhibitor antibody, HC SEQ ID NO:55, LC SEQ ID NO:56
[5]; IV
  T1/2: IV; 5 days

## Dalotuzumab: IGF-1R inhibitor antibody, HC SEQ ID NO:7, LC SEQ ID NO:8
[5]; in vivo
  T1/2: IV; 5 days

## rituximab: a CD20+ B cell-depleting agent
[7]; first monocenter RCT, 2015
  trial result versus placebo: negative (no differences with placebo)
[7]; results using rituximab versus ivGC RCT
  reduction in proptosis compared with ivGCs: not different
[7]; second monocenter RCT, 2015
  trial result versus ivGCs: positive (beneficial effects comparable to ivGCs)

## teprotumumab: fully human IGF-IR-inhibitory monoclonal antibody approved for the treatment of TED
TED (GO); in vivo
  efficacy in the treatment of TED: effective
TED (GO); vs. 0.15 mm in the placebo group
  average decrease in exophthalmos: 2.46 mm
[5]; IV
  T1/2: IV; 8 days

B1: Figitumumab: IGF-1R inhibitor antibody, HC SEQ ID NO:39, LC SEQ ID NO:40 (antibody)
heavy: EVQLLESGGGLVQPGGSLRLSCTASGFTFSSYAMNWVRQAPGKGLEWVSAISGSGGTTFYADSVKGRFTISRDNSRTTLYLQMNSLRAEDTAVYYCAKDLGWSDSYYYYYGMDVWGQGTTVTVSSASTKGPSVFPLAPCSRSTSESTAALGCLVKDYFPEPVTVSWNSGALTSGVHTFPAVLQSSGLYSLSSVVTVPSSNFGTQTYTCNVDHKPSNTKVDKTVERKCCVECPPCPAPPVAGPSVFLFPPKPKDTLMISRTPEVTCVVVDVSHEDPEVQFNWYVDGVEVHNAKTKPREEQFNSTFRVVSVLTVVHQDWLNGKEYKCKVSNKGLPAPIEKTISKTKGQPREPQVYTLPPSREEMTKNQVSLTCLVKGFYPSDIAVEWESNGQPENNYKTTPPMLDSDGSFFLYSKLTVDKSRWQQGNVFSCSVMHEALHNHYTQKSLSLSPGK
light: DIQMTQFPSSLSASVGDRVTITCRASQGIRNDLGWYQQKPGKAPKRLIYAASRLHRGVPSRFSGSGSGTEFTLTISSLQPEDFATYYCLQHNSYPCSFGQGTKLEIKRTVAAPSVFIFPPSDEQLKSGTASVVCLLNNFYPREAKVQWKVDNALQSGNSQESVTEQDSKDSTYSLSSTLTLSKADYEKHKVYACEVTHQGLSSPVTKSFNRGEC
modifications: Heavy Chain of Figitumumab; Light Chain of Figitumumab
[5]; IV
  T1/2: IV; 20 days
